Laboratory results reported in PMC8584985, “Characterization of a new type of neuronal 5-HT G- protein coupled receptor in the cestode nervous system” (PLoS ONE, 2021).

Key:
Assay type in all cases: cell-based, Echinococcus canadensis
Eca-5-HT1a [1] = assay: FLIPR calcium assay, agonist concentration-response
Eca-5-HT1a [2] = tested on: T1, Eca-5-HT1a; assay: FLIPR calcium assay (Fluo-4), HEK293-GNA15 cells transiently expressing the receptor; a stable line gave EC50 […]
T1 construct: full-length, human codon optimized cDNA in HEK293-GNA15 cells

Eca-5-HT1a [3] = tested on: T2, Eca-5-HT1a; assay: FLIPR calcium assay on mutant receptor
T2 construct: full-length mutant in HEK293-Gα15 cells

Compound	EC50 (Eca-5-HT1a [1])	EC50 (Eca-5-HT1a [2])	EC50 (Eca-5-HT1a [3])
COc1ccc2[nH]cc(CCN)c2c1 [5-MTT, 5-methoxytryptamine]	98 ± 50 nM	–	–
NCCc1c[nH]c2ccc(O)cc12 [serotonin]	–	7.74 ± 0.63 nM	11.5 µM
CC(N)Cc1c[nH]c2ccc(O)cc12 (stereo not drawn) [α-MTS, α-methylserotonin]	2730 ± 730 nM	–	–
